Test results: PMC9090415, “Discovery of small molecule inhibitors of Plasmodium falciparum apicoplast DNA polymerase” (Journal of Enzyme Inhibition and Medicinal Chemistry, 2022)

Biological target: P. falciparum apicoplast DNA polymerase (Pf-apPOL) (Plasmodium falciparum, UniProt Q8ILY1)
Experiment: Fluorescence-based high-throughput DNA polymerase assay (molecular beacon), primary screen and dose-response
Type: biochemical
Settings: for DNA Pol: 90 min, 10 µM; for % inhibition Apo pol 10' 2.5 / % inhibition Apo pol 10' 5 / % inhibition Apo pol 10' 10 / % inhibition Apo pol 10' 20 / % inhibition Apo pol 10' 40 / % inhibition Apo pol 10' 80: read at 10'; for % inhibition Apol 90' 2.5 / % inhibition Apol 90' 5 / % inhibition Apol 90' 10 / % inhibition Apol 90' 20 / % inhibition Apol 90' 40 / % inhibition Apol 90' 80 / % inhibition ApPOL 90' 2.5 / % inhibition ApPOL 90' 5 / % inhibition ApPOL 90' 10 / % inhibition ApPOL 90' 20 / % inhibition ApPOL 90' 40 / % inhibition ApPOL 90' 80: read at 90'; for % inhibition apPOL 180' 2.5 / % inhibition apPOL 180' 5 / % inhibition apPOL 180' 10 / % inhibition apPOL 180' 20 / % inhibition apPOL 180' 40 / % inhibition apPOL 180' 80: read at 180'; for % inhibition Apo pol 5' 2.5 / % inhibition Apo pol 5' 5 / % inhibition Apo pol 5' 10 / % inhibition Apo pol 5' 20 / % inhibition Apo pol 5' 40 / % inhibition Apo pol 5' 80: read at 5'; for % inhibition Apol 40' 2.5 / % inhibition Apol 40' 5 / % inhibition Apol 40' 10 / % inhibition Apol 40' 20 / % inhibition Apol 40' 40 / % inhibition Apol 40' 80: read at 40'
In short: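 Single-point screening used 10 µM compound with 20 nM polymerase, 20 nM hairpin substrate and 6 µM dNTPs for 90 min at 25 °C. Confirmatory titrations (2.5–80 µM) followed fluorescence at three times, and IC50 was derived from a fit including a cooperativity term n.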

[1] = 186 hits, DNA Pol (screen value), unit not given
[2] = 'DNA Pol' (screen value), unit not given

P. falciparum apicoplast DNA polymerase (Pf-apPOL), sequence (Q8ILY1 entry or part of it): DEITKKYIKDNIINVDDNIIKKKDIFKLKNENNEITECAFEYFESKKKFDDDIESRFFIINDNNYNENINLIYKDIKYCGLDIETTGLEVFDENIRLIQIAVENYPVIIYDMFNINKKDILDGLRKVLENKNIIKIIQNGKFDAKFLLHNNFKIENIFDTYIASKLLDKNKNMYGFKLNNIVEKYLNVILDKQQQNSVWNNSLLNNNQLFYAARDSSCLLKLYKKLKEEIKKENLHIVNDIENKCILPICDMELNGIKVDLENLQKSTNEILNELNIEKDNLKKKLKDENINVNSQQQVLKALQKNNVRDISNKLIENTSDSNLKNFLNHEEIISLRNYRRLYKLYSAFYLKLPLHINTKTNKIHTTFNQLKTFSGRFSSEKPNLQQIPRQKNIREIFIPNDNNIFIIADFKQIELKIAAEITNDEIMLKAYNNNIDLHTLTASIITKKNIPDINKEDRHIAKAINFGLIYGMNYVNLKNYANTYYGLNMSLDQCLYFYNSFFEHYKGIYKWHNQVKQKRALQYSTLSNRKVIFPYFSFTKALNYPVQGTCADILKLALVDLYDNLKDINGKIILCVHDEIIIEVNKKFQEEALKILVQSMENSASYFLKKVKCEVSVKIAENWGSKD

## Cc1ccsc1Cn1c(C)ccc1C [Molecule 70, Cc1ccsc1Cn1c(C)ccc1C]
[1]
  DNA Pol: 77
[2]
  DNA Pol: 77
DRC-1, concentration 2.5
  % inhibition Apo pol 10' 2.5: 0.1737%
  % inhibition Apol 90' 2.5: -5.458%
  % inhibition apPOL 180' 2.5: -10.1468%
DRC-1, concentration 5
  % inhibition Apo pol 10' 5: 5.431%
  % inhibition Apol 90' 5: -2.713%
  % inhibition apPOL 180' 5: -7.921%
DRC-1, concentration 10
  % inhibition Apo pol 10' 10: 19.8551%
  % inhibition Apol 90' 10: 8.027%
  % inhibition apPOL 180' 10: -1.934%
DRC-1, concentration 20
  % inhibition Apo pol 10' 20: 37.488%
  % inhibition Apol 90' 20: 21.1278%
  % inhibition apPOL 180' 20: 6.387%
DRC-1, concentration 40
  % inhibition Apo pol 10' 40: 56.0716%
  % inhibition Apol 90' 40: 39.127%
  % inhibition apPOL 180' 40: 21.8537%
DRC-1, concentration 80
  % inhibition Apo pol 10' 80: 76.6416%
  % inhibition Apol 90' 80: 69.1434%
  % inhibition apPOL 180' 80: 54.6421%
DRC-2, concentration 80
  % inhibition Apol 40': 62%
  % inhibition apPOL 180': 62%
  % inhibition Apo pol 5' 80: 47%
  % inhibition Apol 40' 80: 62%
  % inhibition ApPOL 90' 80: 64%
  % inhibition apPOL 180' 80: 62%
DRC-2, concentration 2.5
  % inhibition apPOL 180': -6%
  % inhibition Apo pol 5' 2.5: -3.3%
  % inhibition Apol 40' 2.5: -1.81%
  % inhibition ApPOL 90' 2.5: -3%
  % inhibition apPOL 180' 2.5: -6%
DRC-2, concentration 5
  % inhibition apPOL 180': -6%
  % inhibition Apo pol 5' 5: 5.66%
  % inhibition Apol 40' 5: 4%
  % inhibition ApPOL 90' 5: -0.174%
  % inhibition apPOL 180' 5: -6%
DRC-2, concentration 10
  % inhibition Apo pol 5' 10: 20%
  % inhibition Apol 40' 10: 18%
  % inhibition ApPOL 90' 10: 14%
  % inhibition apPOL 180' 10: 5.64%
DRC-2, concentration 20
  % inhibition Apo pol 5' 20: 32%
  % inhibition Apol 40' 20: 33%
  % inhibition ApPOL 90' 20: 28%
  % inhibition apPOL 180' 20: 16%
DRC-2, concentration 40
  % inhibition Apo pol 5' 40: 48%
  % inhibition Apol 40' 40: 56%
  % inhibition ApPOL 90' 40: 54%
  % inhibition apPOL 180' 40: 45%

## N#CC(=NNc1cc(C(F)(F)F)cc(C(F)(F)F)c1)C(=O)c1ccco1 [KU0264276]
"DNA Pol" of the 186 hits list (screen value)
  DNA Pol: 81
DRC-1, concentration 2.5
  % inhibition Apo pol 10': 7.413%
  % inhibition Apol 90': 13.8039%
  % inhibition apPOL 180': 13.2581%
DRC-1, concentration 5
  % inhibition Apo pol 10': 17.153%
  % inhibition Apol 90': 15.4083%
  % inhibition apPOL 180': 8.8259%
DRC-1, concentration 10
  % inhibition Apo pol 10': 33.1185%
  % inhibition Apol 90': 41.225%
  % inhibition apPOL 180': 37.6364%
DRC-1, concentration 20
  % inhibition Apo pol 10': 55.9301%
  % inhibition Apol 90': 52.5694%
  % inhibition apPOL 180': 41.4937%
DRC-1, concentration 40
  % inhibition Apo pol 10': 90.9847%
  % inhibition Apol 90': 86.2656%
  % inhibition apPOL 180': 81.9249%
DRC-1, concentration 80
  % inhibition Apo pol 10': 81.2188%
  % inhibition Apol 90': 77.3906%
  % inhibition apPOL 180': 71.4519%
DRC-2, concentration 2.5
  % inhibition Apo pol 5': 6%
  % inhibition Apol 40': 8%
  % inhibition ApPOL 90': 4.34%
  % inhibition apPOL 180': -0.774%
DRC-2, concentration 5
  % inhibition Apo pol 5': 12%
  % inhibition Apol 40': 15%
  % inhibition ApPOL 90': 14%
  % inhibition apPOL 180': 4.73%
DRC-2, concentration 10
  % inhibition Apo pol 5': 27%
  % inhibition Apol 40': 34%
  % inhibition ApPOL 90': 32%
  % inhibition apPOL 180': 22%
DRC-2, concentration 20
  % inhibition Apo pol 5': 47%
  % inhibition Apol 40': 59%
  % inhibition ApPOL 90': 59%
  % inhibition apPOL 180': 52%
DRC-2, concentration 40
  % inhibition Apo pol 5': 57%
  % inhibition Apol 40': 69%
  % inhibition ApPOL 90': 71%
  % inhibition apPOL 180': 67%
DRC-2, concentration 80
  % inhibition Apo pol 5': 58%
  % inhibition Apol 40': 72%
  % inhibition ApPOL 90': 74%
  % inhibition apPOL 180': 74%
Primary screen value, DNA Pol
  DNA Pol: 81

## Cc1cccc(-c2noc(C(=O)NNC(=O)C(Cl)(Cl)Cl)n2)c1 [KU0266208]
[1]
  DNA Pol: 74
[2]
  DNA Pol: 74
DRC-1, concentration 2.5
  % inhibition Apo pol 10' 2.5: 9.201%
  % inhibition Apol 90' 2.5: -1.588%
  % inhibition apPOL 180' 2.5: -5.775%
DRC-1, concentration 5
  % inhibition Apo pol 10' 5: 9.396%
  % inhibition Apol 90' 5: -0.4833%
  % inhibition apPOL 180' 5: -5.2438%
DRC-1, concentration 10
  % inhibition Apo pol 10' 10: 14.6387%
  % inhibition Apol 90' 10: 4.634%
  % inhibition apPOL 180' 10: -0.4994%
DRC-1, concentration 20
  % inhibition Apo pol 10' 20: 23.1394%
  % inhibition Apol 90' 20: 14.9894%
  % inhibition apPOL 180' 20: 8.812%
DRC-1, concentration 40
  % inhibition Apo pol 10' 40: 47.3506%
  % inhibition Apol 90' 40: 39.8547%
  % inhibition apPOL 180' 40: 34.7216%
DRC-1, concentration 80
  % inhibition Apo pol 10' 80: 74.0124%
  % inhibition Apol 90' 80: 66.9528%
  % inhibition apPOL 180' 80: 64.1117%
DRC-2, concentration 10
  % inhibition Apo pol 5': 11%
  % inhibition Apol 40': 11%
  % inhibition Apo pol 5' 10: 11%
  % inhibition Apol 40' 10: 11%
  % inhibition ApPOL 90' 10: 10%
  % inhibition apPOL 180' 10: 5.71%
DRC-2, concentration 20
  % inhibition Apol 40': 24%
  % inhibition ApPOL 90': 24%
  % inhibition Apo pol 5' 20: 21%
  % inhibition Apol 40' 20: 24%
  % inhibition ApPOL 90' 20: 24%
  % inhibition apPOL 180' 20: 20%
DRC-2, concentration 2.5
  % inhibition Apo pol 5' 2.5: 4.48%
  % inhibition Apol 40' 2.5: 4.33%
  % inhibition ApPOL 90' 2.5: 3%
  % inhibition apPOL 180' 2.5: -1%
DRC-2, concentration 5
  % inhibition Apo pol 5' 5: 5.63%
  % inhibition Apol 40' 5: 4.64%
  % inhibition ApPOL 90' 5: 2.46%
  % inhibition apPOL 180' 5: 1.1%
DRC-2, concentration 40
  % inhibition Apo pol 5' 40: 36%
  % inhibition Apol 40' 40: 44%
  % inhibition ApPOL 90' 40: 45%
  % inhibition apPOL 180' 40: 42%
DRC-2, concentration 80
  % inhibition Apo pol 5' 80: 49%
  % inhibition Apol 40' 80: 58%
  % inhibition ApPOL 90' 80: 60%
  % inhibition apPOL 180' 80: 59%

## Cc1ccc(-n2nnc(C(=O)O)c2-c2ccccn2)c(F)c1 [Molecule 54, Cc1ccc(c(c1)F)n1nnc(c1c1ccccn1)C(=O)O]
'DNA Pol' of the 186 hits list (primary screen value)
  DNA Pol: 25
DNA Pol (primary screen value)
  DNA Pol: 25
DRC-1, concentration 2.5
  % inhibition Apo pol 10': 7.865%
  % inhibition Apol 90': 0.06529%
  % inhibition apPOL 180': -5.444%
DRC-1, concentration 5
  % inhibition Apo pol 10': 13.3823%
  % inhibition Apol 90': 1.171%
  % inhibition apPOL 180': -7.146%
DRC-1, concentration 10
  % inhibition Apo pol 10': 36.76%
  % inhibition Apol 90': 17.5602%
  % inhibition apPOL 180': 5.348%
DRC-1, concentration 20
  % inhibition Apo pol 10': 54.7705%
  % inhibition Apol 90': 37.4412%
  % inhibition apPOL 180': 21.3721%
DRC-1, concentration 40
  % inhibition Apo pol 10': 63.8546%
  % inhibition Apol 90': 61.51%
  % inhibition apPOL 180': 53.298%
DRC-1, concentration 80
  % inhibition Apo pol 10': 49.8653%
  % inhibition Apol 90': 66.8702%
  % inhibition apPOL 180': 71.3072%
DRC-2, concentration 2.5
  % inhibition Apo pol 5': 5%
  % inhibition Apol 40': 5.55%
  % inhibition ApPOL 90': 3.47%
  % inhibition apPOL 180': 0.3%
DRC-2, concentration 5
  % inhibition Apo pol 5': 15%
  % inhibition Apol 40': 10%
  % inhibition ApPOL 90': 6%
  % inhibition apPOL 180': -1.15%
DRC-2, concentration 10
  % inhibition Apo pol 5': 31%
  % inhibition Apol 40': 27%
  % inhibition ApPOL 90': 22%
  % inhibition apPOL 180': 13%
DRC-2, concentration 20
  % inhibition Apo pol 5': 33%
  % inhibition Apol 40': 42%
  % inhibition ApPOL 90': 39%
  % inhibition apPOL 180': 28%
DRC-2, concentration 40
  % inhibition Apo pol 5': 21%
  % inhibition Apol 40': 48%
  % inhibition ApPOL 90': 52%
  % inhibition apPOL 180': 51%
DRC-2, concentration 80
  % inhibition Apo pol 5': -14%
  % inhibition Apol 40': 33%
  % inhibition ApPOL 90': 45%
  % inhibition apPOL 180': 55%
